Values quoted from earlier work in US20120195873A1, “METHODS OF A[…] LOSS OF […]” (NESTEC S.A., priority 2009, published 2012).

Experiments:
skeletal muscle [1] = conditions: animal data, exogenous 25-OH
type II muscle fibers = conditions: vitamin D deficient patients, pre- vs post-supplementation
skeletal muscle [2] = conditions: vitamin D deficient rats
[3] = system: lower extremity muscle performance; conditions: elderly; amounts bringing mean serum 25-OH Vitamin D to 66-84 nmol/L
[4] = 400 mg twice daily; heavy exercise, calcium loss through sweat

25-Hydroxy Vitamin D [25-OH]
skeletal muscle protein synthesis (skeletal muscle [1]): increases skeletal muscle protein synthesis

vitamin D
atrophy of type II muscle fibers in biopsies (type II muscle fibers): significant improvements were observed post-supplementation
muscle mass (skeletal muscle [2]): increased muscle mass
rate of myofibrillar protein degradation (skeletal muscle [2]): decreased rate of myofibrillar protein degradation
weight gain (skeletal muscle [2]): weight gain
lower extremity muscle performance [3]: improves lower extremity muscle performance

O=C([O-])[O-].[Ca+2] [calcium carbonate]
offset of exercise-induced net calcium loss [4]: sufficient to offset this loss
